According to US11834414B2, “1-methyl-4-[(4-phenylphenyl)sulfonylmethyl]cyclohexyanol and 1-methyl-4-[[4-(2-pyridyl)phenyl]sulfonylmethyl]cyclohexanol compounds and their therapeutic use” (Modern Biosciences Limited, priority 2018, dated 2023):
In brackets after ≈: the same amount, converted by molar mass. Entries after “also recorded” stand apart in the source; their conditions may differ.

Key:
[1] = tested on: Thp1 human monocytic cells; assay: Thp1 Monocyte ATP Production Assay; type: cell-based; details: Homo sapiens, THP-1, 24 h, Thp1 cells, 24 hour incubation, ATPLite; 9-point range 10 μM to 10 nM, mean of 2 independent experiments
Procedure: In vitro potency of test compounds was determined by incubation with Thp1 human monocytic cells and subsequent determination of Adenosine TriPhosphate (ATP) levels using firefly luciferase.
ATP is present in all metabolically active cells. When cells lose integrity, their ability to synthesise ATP is rapidly lost. […] See, e.g., Kang et al., 2015; Jiang et al., 2013. Levels of ATP can be monitored using a system based on firefly (Photinus pyralis) luciferase (see, e.g., Auld et al., 2009) using commercially available kits. A system known as
ATPlite™ was using to measure effects of the test compounds on cellular viability in vitro. This one-step assay system is an adenosine triphosphate (ATP) monitoring system based on the production of light caused by the reaction of ATP from the cells with added luciferase and D-luciferin, as illustrated in the reaction scheme below:
The emitted light is proportional to the ATP concentration.
Thp1 cells were plated at 112500 cells per well in 125 μL RPMI-1640 (no glucose) with 1% FBS in 96-well plates. Test compounds were prepared as 100 mM solutions in DMSO. These stock solutions were diluted in DMSO and then diluted 1000× in culture medium (RPMI) before being added directly to the wells so as to give the desired final compound concentration. After a 24 hour incubation at 37° C./5% CO2, ATPLite™ (Perkin Elmer) was added to each well (1:10 v/v, 10 μL). The plate was then incubated at room temperature for 5 minutes and the emitted light was quantified on Viewlux with a measurement time of 0.3 seconds and binning 4×4.
The average results for each test compound were expressed as a percent (%) of the average control value reflecting cell viability. The average values across the concentrations tested were then plotted and the IC50 for was calculated by fitting the data to a 4-parameter IC50 equation using software from Graf it (Erithacus Software). Each experiment was repeated twice and the data are presented as the mean IC50 from both experiments.

[2] = Human hepatocyte stability; type: in vitro ADME; details: human, pooled human hepatocytes, human hepatocytes, 1 μM, 60 minute incubation; for hepatocyte CLint at 1 μM: read-out: Human Clint (uL/min/million cells); for half-life at 1 μM: read-out: Human t1/2
Procedure: (§1) Metabolic stability of test compounds was measured by determination of the rate of disappearance of the compound when incubated in the presence of rat or human hepatocytes, a primary source of the most important enzymes (cytochrome P450s) involved in drug metabolism. Study of drug stability in the presence of primary hepatocytes is accepted as a valuable model permitting rapid prediction of in vivo drug stability.
(§2) Rat or human hepatocytes were obtained from a commercial source and viability was assessed using a trypan blue solution prior to use. Test compounds (final concentration 1 μM, 0.1% DMSO, 0.9% acetonitrile) or a marker (diclofenac or diltiazem, final assay concentration 1 μM, 0.1% DMSO, 0.9% acetonitrile) were incubated with pooled hepatocytes for a 60 minute period and samples removed at up to 6 time points and analysed by LC-MS/MS for the presence/amount of test compounds.
(§3) Each compound was incubated for 0, 5, 15, 30, 45, or 60 minutes. The reactions were stopped by the addition of methanol containing an internal standard (1 μM Tolbutamide) at the appropriate time points, mixed and placed at −20° C. for ≥1 hour to quench and allow protein to precipitate. All samples were centrifuged (2500×g, 20 minutes, 4° C.). The aliquots were analysed using LC-MS/MS. Reactions were performed in duplicate at 37° C.
(§4) Data were processed, and the results plotted as In(concentration) vs. time. The elimination rate constant (slope of the regression line, k) was calculated using the following formula, where C(t) is the concentration at time t and C(0) is the starting concentration:
(§5) The half-life (t1/2) was calculated using the following formula: […]
(§6) The intrinsic clearance (CIint) was calculated using the following formula, where [cell] is the hepatocyte concentration in the assay: […]

human hepatocytes = assay: Human hepatocyte stability; type: in vitro ADME; details: hepatocyte stability, compared to the reference compounds
Procedure: as §1, §2, §3, §4, §5, §6

CYP2D6 = CYP2D6 (Homo sapiens (Human), UniProt P10635); assay: Human Cytochrome P450 Inhibition Assay (Bactosomes); type: in vitro ADME; details: recombinant Bactosomes, 10 minutes, 37° C.
CYP2D6, sequence (P10635 whole entry): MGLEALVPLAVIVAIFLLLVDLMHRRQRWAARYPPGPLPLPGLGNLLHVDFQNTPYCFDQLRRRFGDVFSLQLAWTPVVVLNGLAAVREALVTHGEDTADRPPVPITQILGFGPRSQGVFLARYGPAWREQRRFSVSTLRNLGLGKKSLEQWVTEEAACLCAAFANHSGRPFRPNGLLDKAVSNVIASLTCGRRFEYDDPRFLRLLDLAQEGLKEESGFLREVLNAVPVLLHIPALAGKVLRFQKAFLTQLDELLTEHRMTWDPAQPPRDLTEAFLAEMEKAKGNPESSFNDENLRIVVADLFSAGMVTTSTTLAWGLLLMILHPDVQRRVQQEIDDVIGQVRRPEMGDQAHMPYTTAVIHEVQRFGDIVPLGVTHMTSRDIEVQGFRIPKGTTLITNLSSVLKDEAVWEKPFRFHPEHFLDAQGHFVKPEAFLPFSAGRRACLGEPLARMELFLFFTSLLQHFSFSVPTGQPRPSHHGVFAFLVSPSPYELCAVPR

CYP2C19 = CYP2C19 (Homo sapiens (Human), UniProt P33261); assay: as above; type: in vitro ADME; details: recombinant Bactosomes, 10 minutes, 37° C.
CYP2C19, sequence (P33261 whole entry): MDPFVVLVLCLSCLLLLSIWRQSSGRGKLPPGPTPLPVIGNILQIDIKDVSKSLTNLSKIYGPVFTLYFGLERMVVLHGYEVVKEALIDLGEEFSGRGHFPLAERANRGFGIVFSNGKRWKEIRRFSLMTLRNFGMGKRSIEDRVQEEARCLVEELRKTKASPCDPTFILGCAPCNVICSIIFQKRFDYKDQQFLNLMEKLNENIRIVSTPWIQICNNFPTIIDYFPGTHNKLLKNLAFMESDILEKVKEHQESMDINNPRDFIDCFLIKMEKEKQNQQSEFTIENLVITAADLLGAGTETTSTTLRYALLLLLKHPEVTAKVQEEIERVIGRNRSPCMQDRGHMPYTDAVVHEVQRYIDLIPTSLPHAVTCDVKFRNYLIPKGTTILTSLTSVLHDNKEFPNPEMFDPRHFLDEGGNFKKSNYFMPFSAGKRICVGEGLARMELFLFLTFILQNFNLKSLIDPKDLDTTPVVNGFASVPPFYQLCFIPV

CYP2C9 = CYP2C9 (Homo sapiens (Human), UniProt P11712); assay: as above; type: in vitro ADME; details: recombinant Bactosomes, 10 minutes, 37° C.
CYP2C9, sequence (P11712 whole entry): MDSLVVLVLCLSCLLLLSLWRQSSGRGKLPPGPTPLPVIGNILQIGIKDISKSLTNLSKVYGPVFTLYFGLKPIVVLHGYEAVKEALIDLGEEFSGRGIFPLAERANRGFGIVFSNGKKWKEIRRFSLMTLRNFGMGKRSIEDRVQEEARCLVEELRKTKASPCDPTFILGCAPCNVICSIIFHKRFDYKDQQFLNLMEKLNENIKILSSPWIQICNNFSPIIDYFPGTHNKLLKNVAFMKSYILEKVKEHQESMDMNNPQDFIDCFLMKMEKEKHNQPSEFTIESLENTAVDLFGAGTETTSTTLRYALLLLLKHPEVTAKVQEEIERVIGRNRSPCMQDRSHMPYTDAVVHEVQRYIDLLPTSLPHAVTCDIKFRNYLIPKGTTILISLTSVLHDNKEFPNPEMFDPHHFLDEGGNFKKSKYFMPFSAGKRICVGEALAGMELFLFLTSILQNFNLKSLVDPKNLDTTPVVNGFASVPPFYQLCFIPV

CYP3A4 = CYP3A4 (Homo sapiens (Human), UniProt P08684); assay: as above; type: in vitro ADME; details: recombinant Bactosomes, 10 minutes, 37° C.
CYP3A4, sequence (P08684 whole entry): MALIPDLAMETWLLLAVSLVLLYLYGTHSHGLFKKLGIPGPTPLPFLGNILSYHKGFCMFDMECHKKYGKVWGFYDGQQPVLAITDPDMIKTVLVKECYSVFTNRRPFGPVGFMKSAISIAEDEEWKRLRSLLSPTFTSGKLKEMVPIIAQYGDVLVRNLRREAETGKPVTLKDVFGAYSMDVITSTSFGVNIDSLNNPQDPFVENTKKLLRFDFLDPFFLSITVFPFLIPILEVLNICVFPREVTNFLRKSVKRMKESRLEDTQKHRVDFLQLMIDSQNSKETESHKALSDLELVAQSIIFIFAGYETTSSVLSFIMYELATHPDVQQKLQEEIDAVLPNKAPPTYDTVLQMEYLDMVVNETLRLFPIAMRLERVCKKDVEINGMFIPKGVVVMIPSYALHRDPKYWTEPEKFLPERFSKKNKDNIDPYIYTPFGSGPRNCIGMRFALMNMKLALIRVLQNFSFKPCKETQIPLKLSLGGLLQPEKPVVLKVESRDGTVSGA

CYP1A2 = CYP1A2 (Homo sapiens (Human), UniProt P05177); details: recombinant enzyme
CYP1A2, sequence (P05177 whole entry): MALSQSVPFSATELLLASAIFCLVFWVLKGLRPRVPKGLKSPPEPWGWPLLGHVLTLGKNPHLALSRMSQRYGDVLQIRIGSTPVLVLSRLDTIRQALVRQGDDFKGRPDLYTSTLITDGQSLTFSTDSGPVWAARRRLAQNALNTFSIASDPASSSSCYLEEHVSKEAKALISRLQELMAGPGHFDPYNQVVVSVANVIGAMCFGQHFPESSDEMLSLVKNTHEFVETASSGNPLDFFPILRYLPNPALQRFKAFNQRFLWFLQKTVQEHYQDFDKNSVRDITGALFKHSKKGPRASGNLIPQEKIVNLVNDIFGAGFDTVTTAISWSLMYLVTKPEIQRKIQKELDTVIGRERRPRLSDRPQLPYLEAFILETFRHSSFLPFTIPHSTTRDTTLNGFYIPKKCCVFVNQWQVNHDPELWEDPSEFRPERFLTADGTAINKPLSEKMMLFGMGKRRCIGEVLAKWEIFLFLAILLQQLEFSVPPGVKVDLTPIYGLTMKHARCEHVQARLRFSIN

Rat hepatocyte stability = type: in vitro ADME; details: rat, pooled rat hepatocytes, 60 minute incubation; for hepatocyte CLint at 1 μM: read-out: Rat Clint (μL/min/million cells); for half-life at 1 μM: read-out: Rat t1/2
Procedure: as §1, §2, §3, §4, §5, §6

[3] = Aqueous solubility in FaSSIF; type: physicochemical; details: kinetic from dmso stock, pH 6.5, three replicates
Procedure: Aqueous solubility was measured by equilibration of compounds with fasted state simulated intestinal fluid (FaSSIF) and quantified spectrophotometrically.
Preparation of blank FaSSIF: 0.21 g of sodium hydroxide (NaOH) pellets, 1.97 g of dihydrogen sodium phosphate (NaH2PO4.2H2O) and 3.09 g of sodium chloride (NaCl) were dissolved in 400 mL of deionised water. The pH was adjusted to 6.5 using 1 M hydrochloric acid and further deionised water added to a final volume of 500 mL.
Preparation of FaSSIF: 0.056 g of SIF Powder (containing sodium taurocholate and lecithin) (Phares AG) was dissolved in 25 mL of blank FaSSIF and stirred until the powder was completely dissolved. The solution was allowed to stand for 2 hours during which it became opalescent; it was used within 24 hours. The final solution composition was characterised as follows: • Sodium taurocholate: 3 mM • Lecithin: 0.75 mM • Osmolarity: 270±10 mOsmol • pH: 6.5
The optical density was measured at the end of the incubation period for test compounds and a reference used to determine solubility. In brief, two samples were prepared for each determination: a reference sample consisting of a stock solution of test compound in DMSO diluted in system solution (a phosphate free, low absorption buffer) and propanol; and a test sample (prepared in triplicate) consisting of 0.5 mL FaSSIF spiked with test compound at 0.2 mM. Each sample was incubated at room temperature for 16 hours with constant shaking at 250 rpm. At the end of the incubation period, 0.3 mL of each sample was filtered through a pION filter plate (PION, Woburn MA), diluted 1:1 with propanol and scanned using UV spectrophotometry at λmax ([…]) using a Spectra Max Plus—Version 2.1000 (Molecular Devices, Sunnyvale, CA), with pSOL Explorer solubility determination software (pION, Woburn, MA).
FaSSIF solubility was calculated using the following formula:
[formula] • wherein: • “OD” is the optical density; • “Cr” is the concentration of the reference (33.4 μM); and • “molecular weight” is for the test compound (e.g., 381.44 for ABD735).

[4] = Metabolite identification in rats; type: in vivo, Han Wistar rats; details: rat, 1 mg/kg intravenous
Procedure: The formation of metabolites in rats was assessed to determine the propensity of the compounds to form a biaryl metabolite.
The corresponding sulfonamide compounds (for example, reference compound HMC-C-01-A) give rise to a sulphonamide metabolite which is persistent and has a long half-life. In addition, the biaryl sulphonamide metabolite acts as an inducer of metabolism in rats, which may complicate the assessment of toxicity in rodents. Therefore, the lower the propensity to form a biaryl sulphonamide metabolite, the greater the potential suitability of the compound for development for human use.
Plasma samples from Han Wistar rats, aged 8-12 weeks, were collected from animals dosed with test compound. Test compounds at a dose of 1 mg/kg were administered intravenously as a solution in 5% NMP, 5% Solutol HS, and 90% normal saline. Animals were given free access to food throughout the study. Blood samples were taken under light isoflurane anaesthesia at 12 time points following an intravenous dose (0.033, 0.1, 0.167, 0.25, 0.5, 1, 2, 4, 6, 8, 12, and 24 hours). The blood samples were collected from a set of three rats at each time point in labelled micro centrifuge tube containing K2EDTA as anticoagulant. Plasma samples were separated by centrifugation of whole blood.
All samples were processed for analysis by protein precipitation using acetonitrile and analysed with a fit-for-purpose LC-MS/MS method.
At the completion of the study, the results were expressed as detection of the metabolite and time course of formation.

| SMILES | IC50 [1] [µM] | hepatocyte CLint at 1 μM [2] [µL/min/1e6 cells] | half-life at 1 μM [2] [min] | metabolic stability (in words) (human hepatocytes) | IC50 (CYP2D6) [µM] | IC50 (CYP2C19) [µM] | IC50 (CYP2C9) [µM] | IC50 (CYP3A4) [µM] | IC50 (CYP1A2) [µM] | hepatocyte CLint at 1 μM (Rat hepatocyte stability) [µL/min/1e6 cells] | half-life at 1 μM (Rat hepatocyte stability) [min] | solubility at 16 h [3] [µg/mL] | time after administration at which metabolite MET-002 was detected [4] [h] | formation of biaryl sulphonamide metabolite (MET-001) in plasma ([4]; up to 24 hours) | formation of biaryl sulphonic acid metabolite (MET-002) in plasma ([4]; up to 24 hours) |
| --- | --- | --- | --- | --- | --- | --- | --- | --- | --- | --- | --- | --- | --- | --- | --- |
| C[C@]1(O)CC[C@@H](CS(=O)(=O)c2ccc(-c3ccc(C#N)cc3)c(F)c2)CC1 [CHMSA-12-A, 2′-fluoro-4′-(((cis-4-hydroxy-4-methylcyclohexyl)methyl)sulfonyl)-[1,1′-biphenyl]-4-carbonitrile] | 1.8 | < 3.1 | > 436 | exceptionally good stability | – | – | – | – | – | – | – | – | – | – | – |
| CC1(O)CCC(NS(=O)(=O)c2ccc(-c3ccc(Cl)cc3C#N)c(Cl)c2)CC1 (stereo not drawn) [HMC-C-11-A, reference compound] | – | – | – | – | 9.3 | 5.1 | 2.7 | 12 | 11 | – | – | – | – | – | – |
| C[C@]1(O)CC[C@@H](CS(=O)(=O)c2ccc(-c3ccc(F)cc3F)cc2)CC1 [CHMSA-04-A, cis-4-(((2′,4′-Difluoro-(1,1′-biphenyl)-4-yl)sulfonyl)methyl)-1-methylcyclohexan-1-ol] | 0.98 | 40.6 | 27.5 | – | – | – | – | – | – | 37.4 | 47.1 | > 70 | – | – | – |
| CC1(O)CCC(NS(=O)(=O)c2ccc(-c3ccc(C#N)cc3Cl)cc2)CC1 (stereo not drawn) [HMC-C-09-A, reference compound] | – | – | – | – | > 50 | > 50 | 34 | 33 | 23 | – | – | – | – | – | – |
| C[C@]1(O)CC[C@H](CS(=O)(=O)c2ccc(-c3ccc(C#N)cc3)c(F)c2)CC1 [CHMSA-12-B, 2′-Fluoro-4′-(((trans-4-hydroxy-4-methylcyclohexyl)methyl)sulfonyl)-[1,1′-biphenyl]-4-carbonitrile] | 3.2 | < 3.1 | > 442 | exceptionally good stability | – | – | – | – | – | – | – | – | – | – | – |
| CC1(O)CCC(NS(=O)(=O)c2ccc(-c3cc(F)c(F)cc3F)cc2)CC1 (stereo not drawn) [HMC-C-10-B, reference compound] | – | – | – | – | > 16 | 8.5 | 2.4 | 9.2 | > 16 | – | – | – | – | – | – |
| CC1(O)CCC(NS(=O)(=O)c2ccc(-c3ncc(Cl)cc3C#N)cc2)CC1 (stereo not drawn) [HMC-N-05-A, reference compound] | – | – | – | – | > 50 | > 50 | 27 | > 50 | 36 | – | – | – | – | – | – |
| C[C@]1(O)CC[C@H](CS(=O)(=O)c2ccc(-c3ccc(F)cc3F)cc2)CC1 [CHMSA-04-B, trans-4-(((2′,4′-difluoro-(1,1′-biphenyl)-4-yl)sulfonyl)methyl)-1-methylcyclohexan-1-ol] | 2.4 | < 3 | > 460 | – | – | – | – | – | – | 51.3 | 31.4 | 40 (≈ 105 µM) | – | – | – |
| C[C@]1(O)CC[C@H](CS(=O)(=O)c2ccc(-c3ccc(Cl)cc3C#N)cc2)CC1 [CHMSA-10-B, 4-Chloro-4′-((trans-4-hydroxy-4-methylcyclohexyl)methanesulfonyl)-(1,1′-biphenyl)-2-carbonitrile] | 1.96 | 5.8 | 195 | – | – | – | – | – | – | 336 | 4.8 | – | 0.5 | did not produce any biaryl sulphonamide metabolite | detected only transiently; also recorded: only transiently detected |
